The source made the active and inactive calls. No cut-off for these calls is given here.
Legend:
[1] = biological target: T1, Cholinesterase (Homo sapiens, UniProt P06276)
Description: Inhibition of human recombinant BuChE by Ellman's assay

[2] = system: HEK293; test: Cytotoxicity against HEK293 cells assessed as reduction in cell viability up to 10 uM by MTT assay; assay type: cell-based; settings: human
[3] = biological target: T2, Acetylcholinesterase (Homo sapiens, UniProt P22303); test: Inhibition of human recombinant AChE by Ellman's assay
[4] = biological target: Beta-secretase 1 (Homo sapiens) (UniProt P56817); test: Inhibition of human recombinant BACE1 using M-2420 as a substrate at 3 uM […]
Chain of Beta-secretase 1 (Homo sapiens) (P56817 whole entry): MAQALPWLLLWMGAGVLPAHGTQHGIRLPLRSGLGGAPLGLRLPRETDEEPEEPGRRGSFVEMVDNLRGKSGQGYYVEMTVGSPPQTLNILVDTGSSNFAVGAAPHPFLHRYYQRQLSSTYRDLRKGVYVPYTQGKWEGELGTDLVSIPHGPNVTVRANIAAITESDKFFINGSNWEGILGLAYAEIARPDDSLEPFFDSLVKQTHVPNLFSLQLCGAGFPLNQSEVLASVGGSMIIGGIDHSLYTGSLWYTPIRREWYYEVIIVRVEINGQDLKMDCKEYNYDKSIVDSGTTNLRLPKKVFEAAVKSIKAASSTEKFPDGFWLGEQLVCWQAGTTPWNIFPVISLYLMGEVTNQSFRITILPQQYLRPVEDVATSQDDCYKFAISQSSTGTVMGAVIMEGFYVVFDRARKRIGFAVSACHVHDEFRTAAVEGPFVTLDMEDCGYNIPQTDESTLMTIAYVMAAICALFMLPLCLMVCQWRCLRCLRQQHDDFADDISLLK

[5] = organism: Gallus gallus; test: Reduction in amyloid beta40 secretion in embryonic chicken primary telencephalon neurons; assay type: functional
[6] = biological target: T3, Amyloid-beta precursor protein (Homo sapiens, UniProt P05067)
T3 sequence (P05067 whole entry): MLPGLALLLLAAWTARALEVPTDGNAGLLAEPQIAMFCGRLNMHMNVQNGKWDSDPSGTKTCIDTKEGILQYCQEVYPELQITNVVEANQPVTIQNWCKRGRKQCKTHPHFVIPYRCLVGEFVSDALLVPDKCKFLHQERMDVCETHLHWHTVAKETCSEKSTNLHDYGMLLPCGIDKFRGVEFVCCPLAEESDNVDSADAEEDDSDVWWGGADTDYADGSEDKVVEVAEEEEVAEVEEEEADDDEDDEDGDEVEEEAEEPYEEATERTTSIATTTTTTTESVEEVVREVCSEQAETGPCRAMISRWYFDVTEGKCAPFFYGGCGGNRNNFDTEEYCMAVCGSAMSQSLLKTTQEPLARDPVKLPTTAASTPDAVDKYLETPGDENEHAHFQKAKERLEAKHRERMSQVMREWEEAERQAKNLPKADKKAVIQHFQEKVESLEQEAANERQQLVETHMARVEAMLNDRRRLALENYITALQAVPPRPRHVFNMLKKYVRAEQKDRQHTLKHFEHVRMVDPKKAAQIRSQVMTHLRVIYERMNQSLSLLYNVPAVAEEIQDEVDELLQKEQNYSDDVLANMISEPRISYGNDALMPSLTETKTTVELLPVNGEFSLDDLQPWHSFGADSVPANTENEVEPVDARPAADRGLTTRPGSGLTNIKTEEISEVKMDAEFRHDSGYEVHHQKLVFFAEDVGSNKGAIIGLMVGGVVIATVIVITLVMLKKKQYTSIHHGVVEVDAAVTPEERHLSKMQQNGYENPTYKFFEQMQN
Description: Inhibition of amyloid beta (1 to 42) aggregation (unknown origin) by thioflavin T fluorescence method

[7] = organism: Gallus gallus; test: Reduction in amyloid beta38 secretion in embryonic chicken primary telencephalon neurons; assay type: functional
[8] = Cytotoxicity against embryonic chicken primary telencephalon neurons at 25 to 50 uM; parameters: species or system Gallus gallus
[9] = biological target: T3, Amyloid-beta precursor protein; test: Inhibition of amyloid beta (1 to 42) aggregation (unknown origin) at 10 uM by thioflavin T fluorescence method
[10] = organism: Gallus gallus; test: Reduction in amyloid beta42 secretion in embryonic chicken primary telencephalon neurons; assay type: functional
[11] = organism: Homo sapiens; test: Selectivity ratio of IC50 for human recombinant AChE to IC50 for human recombinant BuChE
[12] = organism: Homo sapiens; test: Selectivity ratio of IC50 for human recombinant BuChE to IC50 for human recombinant AChE
[13] = biological target: T2, Acetylcholinesterase; test: Inhibition of human recombinant AChE at 67 uM by Ellman's assay
[14] = biological target: T1, Cholinesterase; test: Inhibition of human recombinant BuChE at 67 uM by Ellman's assay
[15] = biological target: T1, Cholinesterase; test: Inhibition of human recombinant BuChE hydrolyzing activity at 67 uM by Ellman's assay

T1 sequence (P06276 whole entry): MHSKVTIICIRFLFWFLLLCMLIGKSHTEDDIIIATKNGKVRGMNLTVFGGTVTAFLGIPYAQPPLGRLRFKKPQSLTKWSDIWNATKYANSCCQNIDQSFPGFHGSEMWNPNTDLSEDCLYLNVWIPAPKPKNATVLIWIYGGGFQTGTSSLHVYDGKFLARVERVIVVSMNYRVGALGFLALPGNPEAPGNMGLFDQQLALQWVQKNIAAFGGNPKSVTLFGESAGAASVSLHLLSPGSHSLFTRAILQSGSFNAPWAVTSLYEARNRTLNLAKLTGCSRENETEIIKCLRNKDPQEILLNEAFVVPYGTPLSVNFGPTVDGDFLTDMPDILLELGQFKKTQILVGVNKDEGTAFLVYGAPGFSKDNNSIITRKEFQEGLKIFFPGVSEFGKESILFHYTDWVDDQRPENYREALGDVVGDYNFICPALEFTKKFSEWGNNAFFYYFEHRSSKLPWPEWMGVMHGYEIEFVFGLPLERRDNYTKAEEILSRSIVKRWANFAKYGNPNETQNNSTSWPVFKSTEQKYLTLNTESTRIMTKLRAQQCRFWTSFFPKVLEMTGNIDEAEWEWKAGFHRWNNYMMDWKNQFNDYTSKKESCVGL
T2 sequence (P22303 whole entry): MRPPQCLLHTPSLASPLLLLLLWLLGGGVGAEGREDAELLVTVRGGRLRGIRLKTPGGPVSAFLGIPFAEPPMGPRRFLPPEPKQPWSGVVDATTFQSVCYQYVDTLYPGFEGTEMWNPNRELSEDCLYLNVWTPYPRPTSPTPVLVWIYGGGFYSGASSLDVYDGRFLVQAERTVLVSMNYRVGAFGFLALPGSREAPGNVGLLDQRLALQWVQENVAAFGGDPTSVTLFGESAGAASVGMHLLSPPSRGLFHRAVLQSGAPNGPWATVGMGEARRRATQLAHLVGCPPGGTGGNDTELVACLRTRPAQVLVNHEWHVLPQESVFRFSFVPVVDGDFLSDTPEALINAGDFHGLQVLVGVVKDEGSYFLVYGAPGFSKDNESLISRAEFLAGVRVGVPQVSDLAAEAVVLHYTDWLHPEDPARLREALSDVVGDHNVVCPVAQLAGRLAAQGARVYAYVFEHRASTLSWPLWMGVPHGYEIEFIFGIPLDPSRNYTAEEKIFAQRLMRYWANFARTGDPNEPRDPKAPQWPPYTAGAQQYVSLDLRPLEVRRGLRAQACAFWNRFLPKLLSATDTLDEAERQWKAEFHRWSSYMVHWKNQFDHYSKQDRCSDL

| Compound | IC50 [1] | Activity [2] | IC50 [3] | inhibition [4] | Activity [5] | IC50 [6] | Activity [7] | Activity [8] | inhibition [9] | Activity [10] | Ratio IC50 [11] | Ratio IC50 [12] | inhibition [13] | inhibition [14] | inhibition [15] |
| --- | --- | --- | --- | --- | --- | --- | --- | --- | --- | --- | --- | --- | --- | --- | --- |
| CC(C(=O)NCCCNCCCNC1=CC(=O)c2ccccc2C1=O)c1ccc(-c2ccccc2)c(F)c1 (stereo not drawn) | 16.4 µM | Non-toxic | 107 µM | 20% | Active | 6.88 µM | Active | Toxic | 76.4% | Active |  |  |  |  |  |
| COc1ccc2c(c1)c(CC(=O)NCCCNCCCNC1=CC(=O)C(NCCCNCCCNC(=O)Cc3c(C)n(C(=O)c4ccc(Cl)cc4)c4ccc(OC)cc34)=CC1=O)c(C)n2C(=O)c1ccc(Cl)cc1 | 18.7 µM |  | 10.3 µM | 20% |  | 6.11 µM |  |  | 80.1% |  |  |  |  |  |  |
| O=C(Cc1ccccc1Nc1c(Cl)cccc1Cl)NCCCNCCCNC1=CC(=O)C(NCCCNCCCNC(=O)Cc2ccccc2Nc2c(Cl)cccc2Cl)=CC1=O | 0.36 µM | Non-toxic | 15.4 µM | 20% |  | 3.15 µM |  |  | 74.9% |  | 42.8 |  |  |  |  |
| CC1=C(CC(=O)NCCCNCCCNC2=CC(=O)C(NCCCNCCCNC(=O)CC3=C(C)/C(=C\c4ccc([S+](C)[O-])cc4)c4ccc(F)cc43)=CC2=O)c2cc(F)ccc2/C1=C/c1ccc([S+](C)[O-])cc1 (stereo not drawn) | 14.7 µM |  | 9.54 µM | 20% |  | 8.18 µM |  |  | 55% |  |  |  |  |  |  |
| CCN(CCCCCCNC1=CC(=O)C(NCCCCCCN(CC)Cc2ccccc2OC)=CC1=O)Cc1ccccc1OC [MEMOQUIN] |  |  |  |  |  | 5.93 µM |  |  |  |  |  |  |  |  |  |
| C[C@H](C(=O)NCCCNCCCNC1=CC(=O)C(NCCCNCCCNC(=O)[C@@H](C)c2ccc(-c3ccccc3)c(F)c2)=CC1=O)c1ccc(-c2ccccc2)c(F)c1 | 7.77 µM | Toxic | 2.89 µM | 20% |  | 4.43 µM |  |  | > 90% |  |  |  |  |  |  |
| C[C@@H](C(=O)NCCCNCCCNC1=CC(=O)C(NCCCNCCCNC(=O)[C@H](C)c2ccc(-c3ccccc3)c(F)c2)=CC1=O)c1ccc(-c2ccccc2)c(F)c1 | 9.98 µM | Non-toxic | 27.8 µM | 20% |  | 4.77 µM |  |  | 87.2% |  |  |  |  |  |  |
| CC(C(=O)NCCCNCCCNC1=CC(=O)C(NCCCNCCCNC(=O)C(C)c2ccc(-c3ccccc3)c(F)c2)=CC1=O)c1ccc(-c2ccccc2)c(F)c1 (racemic) |  |  |  | 20% |  |  |  |  | > 90% |  |  |  |  |  |  |
| CC(C(=O)NCCCCCCNC1=CC(=O)C(NCCCCCCNC(=O)C(C)c2ccc(-c3ccccc3)c(F)c2)=CC1=O)c1ccc(-c2ccccc2)c(F)c1 (stereo not drawn) | > 20 µM |  | > 20 µM | 20% |  |  |  |  |  |  |  |  |  |  |  |
| CC(C(=O)NCCCNC1=CC(=O)C(NCCCNC(=O)C(C)c2ccc(-c3ccccc3)c(F)c2)=CC1=O)c1ccc(-c2ccccc2)c(F)c1 (stereo not drawn) | 116 µM |  | > 20 µM | 20% |  |  |  |  | 12.7% |  |  |  |  |  |  |
| CC(C)Cc1ccc(C(C)C(=O)NCCCNCCCNC2=CC(=O)C(NCCCNCCCNC(=O)C(C)c3ccc(CC(C)C)cc3)=CC2=O)cc1 (stereo not drawn) | 22.5 µM |  | 0.6 µM | 20% |  | 4.83 µM |  |  | 82.6% |  |  | 37.5 | 26.3% | < 10% | 70% |

— ChEMBL document CHEMBL3085683, “Quinones bearing non-steroidal anti-inflammatory fragments as multitarget ligands for Alzheimer's disease” (Bioorg Med Chem Lett, 2013)
